Reference: patent US20050267133A1, “Pyrazolopyrimidines as kinase inhibitors” (priority 2002, published 2005)

How the values were obtained:
GSK-3β = GSK-3β (Homo sapiens, UniProt P49841); assay: GSK3 scintillation proximity assay (SPA) kinase assay; format: biochemical; conditions: 20 nM kinase, 2.5 uM ATP, biotinylated glycogen synthase peptide, 40 minutes at room temperature; -log IC50 in Molar; read-out: GSK-3 pIC50 (converted)
Source text: The phosphorylated biotinylated peptide is then captured onto streptavidin coated scintillation proximity assay (SPA) beads from Amersham Technology, where the signal from the ^33P is amplified via the scintillant contained in the beads.
GSK-3β is commercially available or may be cloned and expressed in E. coli using standard techniques to produce soluble, active protein. The production of active protein involves purification in two steps using Metal Chelate and Ion Exchange Chromatography. Protein eluting from Ion Exchange provides >90% pure product that may then be concentrated for use in high throughput screening.
The kinase was assayed at a concentration of 20 nM final in 100 mM HEPES, pH 7.2 containing 10 mM magnesium chloride, 0.1 mg/mL bovine serum albumin, 1 mM dithiothreitol, 0.3 mg/mL heparin, 2.8 uM peptide substrate, 2.5 uM ATP, and 0.2 uCi/well [[…]-^33P]-ATP. After 40 minutes incubation at room temperature, the reaction was stopped by addition of 100 mM EDTA and […] in 100 mM HEPES, pH7.2 followed by an additional solution of diluted Streptavidin coated SPA beads in PBS, pH 7.2 to give a final concentration of 0.25 mg of beads per assay well in a 96-well microtiter plate.
10 mM stock solutions of the compounds of the invention in 100% DMSO are generated as a first step in the screening process. The second step involves the creation of dose response plates where these compounds are diluted 10-fold in 100% DMSO to 1 mM concentrations and subsequently serially diluted 3-fold in 100% DMSO across the plate by automated liquid handling such that the final top concentration of inhibitor is 0.033 mM in the 30 uL kinase assay. The third step involves the creation of the assay plates. This is achieved by transferring 1 uL of the compounds to assay plates by automated liquid handling. The fourth step is to perform the assay as described and count the resulting plates in the Packard TopCount NXT microplate scintillation and luminescence counter.
The final step is data acquisition and analysis where IC50 values are generated for each compound by normalizing curve data to the equation 100*(U1−C2)/(C1−C2) (where U1 is the cpm value, C2 is the background, and C1 is the maximum number of counts), then fitting the normalized data to the equation y=Vmax*(1−(x/(K+x))). The IC50 values were converted to pIC50 values, i.e., −log IC50 in Molar concentration. The data is expressed below in Table 1.

[1] = molecular target: T1, GST-TIE2 (intracellular domains of human TIE2) (Homo sapiens, UniProt Q02763); assay: TIE-2 Enzyme Assay (TIE2-E), LANCE method; format: biochemical; conditions: preactivated GST-TIE2, 1 μM D1-15 peptide, 80 uM ATP, 30 mins at room temperature; pIC50 = -log IC50 in Molar
T1 construct: made in house
Source text: The TIE-2 enzyme assay used the LANCE method (Wallac) and GST-TIE2, baculovirus expressed recombinant constructs of the intracellular domains of human TIE2 (amino acids 762-1104, GenBank Accession # L06139) tagged by GST). The method measured the ability of the purified enzymes to catalyse the transfer of the γ-phosphate from ATP onto tyrosine residues in a biotinylated synthetic peptide, D1-15 (biotin-C6-LEARLVAYEGWVAGKKKamide). This peptide phosphorylation was detected using the following procedure: for enzyme preactivation, GST-TIE2 was incubated for 30 mins at room temperature with 2 mM ATP, 5 mM MgCl2 and 12.5 mM DTT in 22.5 mM HEPES buffer (pH7.4). Preactivated GST-TIE2 was incubated for 30 mins at room temperature in 96 well plates with 1 μM D1-15 peptide, 80 uM ATP, 10 mM MgCl2, 0.1 mg/ml BSA and the test compound (diluted from a 10 mM stock in DMSO, final DMSO concentration was 2.4%) in 1 mM HEPES (pH7.4). The reaction was stopped by the addition of EDTA (final concentration 45 mM). Streptavidin linked-APC (allophycocyanin, Molecular Probe) and Europium-labeled anti-phosphorylated tyrosine antibody (Wallac) were then added at the final concentration of 17 μg/well and 2.1 μg/well, respectively. The APC signal was measured using an ARVO multilabel counter. (Wallac Berthold Japan). The percent inhibition of activity was calculated relative to blank control wells.
The concentration of test compound that inhibits 50% of activity (IC50) was interpolated using nonlinear regression (Levernberg-Marquardt) and the equation, y=Vmax (1−x/(K+x))+Y2, where “K” was equal to the IC50. The IC50 values were converted to pIC50 values, i.e., −log IC50 in Molar concentration.
Test compounds are employed in free or salt form.

T1 sequence (Q02763 762-1104): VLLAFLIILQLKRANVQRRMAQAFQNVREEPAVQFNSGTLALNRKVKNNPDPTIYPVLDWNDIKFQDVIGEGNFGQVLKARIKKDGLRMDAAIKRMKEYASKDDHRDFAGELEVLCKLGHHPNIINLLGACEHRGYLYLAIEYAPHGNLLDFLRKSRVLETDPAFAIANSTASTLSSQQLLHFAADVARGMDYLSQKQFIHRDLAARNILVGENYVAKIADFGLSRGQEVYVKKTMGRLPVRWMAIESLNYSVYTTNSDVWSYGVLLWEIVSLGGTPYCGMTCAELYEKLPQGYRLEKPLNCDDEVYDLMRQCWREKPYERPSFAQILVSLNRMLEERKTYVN
Chain of GSK-3β (P49841 whole entry, species assumed): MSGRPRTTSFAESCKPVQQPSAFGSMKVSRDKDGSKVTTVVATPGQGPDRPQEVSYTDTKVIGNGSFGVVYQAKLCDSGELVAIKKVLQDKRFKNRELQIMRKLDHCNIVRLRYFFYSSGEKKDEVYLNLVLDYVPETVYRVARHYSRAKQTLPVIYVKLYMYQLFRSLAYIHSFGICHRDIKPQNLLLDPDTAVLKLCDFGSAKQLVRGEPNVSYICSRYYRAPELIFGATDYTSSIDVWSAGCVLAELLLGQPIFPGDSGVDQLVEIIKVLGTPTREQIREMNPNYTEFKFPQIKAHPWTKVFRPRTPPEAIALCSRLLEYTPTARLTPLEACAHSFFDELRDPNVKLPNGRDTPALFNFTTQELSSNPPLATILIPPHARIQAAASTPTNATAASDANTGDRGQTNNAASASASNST

Compound	IC50 (GSK-3β) [µM]	IC50 [1] [µM]
CS(=O)(=O)CCNC(=O)c1ccc(/C=N/Nc2ncnc3c2cnn3-c2ccccc2)cc1 [Example 38, N-[2-(Methylsulfonyl)ethyl]-4-{(E)-[(1-phenyl-1H-pyrazolo[3,4-d]pyrimidin-4-yl)hydrazono]methyl}benzamide]	< 0.1	0.1 to 1
NS(=O)(=O)c1ccc(/C=N/Nc2ncnc3c2cnn3-c2ccccc2)cc1 [Example 20, 4-{(E)-[(1-phenyl-1H-pyrazolo[3,4-d]pyrimidin-4-yl)hydrazonol]methyl}benzenesulfonamide]	< 0.1	0.1 to 1
OCCOc1ccc(/C=N/Nc2ncnc3c2cnn3-c2ccccc2)cc1 [Example 53, 4-(2-Hydroxyethoxy)benzaldehyde [1-(phenyl)-1H-pyrazolo[3,4-d]pyrimidin-4-yl]hydrazone]	0.1 to 1	1 to 10
NCCCNC(=O)c1ccc(/C=N/Nc2ncnc3c2cnn3-c2ccccc2)cc1 [Example 32, N-(3-aminopropyl)-4-{(E)-[(1-phenyl-1H-pyrazolo[3,4-d]pyrimidin-4-yl)hydrazono]methyl}benzamide]	0.1 to 1	0.1 to 1
O=C(NCCc1c[nH]cn1)c1ccc(/C=N/Nc2ncnc3c2cnn3-c2ccccc2)cc1 [Example 29, N[2-(1H-imidazol-4-yl)ethyl]-4-{(E)-[(1-phenyl-1H-pyrazolo[3,4-d]pyrimidin-4-yl)hydrazono]methyl}benzamide]	0.1 to 1	0.1 to 1

The next lines start with the values.

IC50 (GSK-3β) [µM]	IC50 [1] [µM]	Compound
1 to 10	1 to 10	CCOc1cc(/C=N/Nc2ncnc3c2cnn3-c2ccccc2)ccc1O [Example 49, 3-Ethoxy-4-hydroxy-benzaldehyde (1-phenyl-1H-pyrazolo[3,4-d]pyrimidin-4-yl)hydrazone]
< 0.1	0.1 to 1	COc1cc(/C=N/Nc2ncnc3c2cnn3-c2ccccc2)ccc1O [Example 43, 4-Hydroxy-3-methoxybenzaldehyde (1-phenyl-1H-pyrazolo[3,4-d]pyrimidin-4-yl)hydrazone]
0.1 to 1	1 to 10	Fc1ccc(/C=N/Nc2ncnc3c2cnn3-c2ccccc2)cc1 [Example 50, 4-Fluorobenzaldehyde (1-phenyl-1H-pyrazolo[3,4-d]pyrimidin-4-yl)hydrazone]
< 0.1	0.1 to 1	OCCOc1cccc(/C=N/Nc2ncnc3c2cnn3-c2ccccc2)c1 [Example 5, 3-(2-Hydroxyethoxy)benzaldehyde (1-phenyl-1H-pyrazolo[3,4-d]pyrimidin-4-yl)hydrazone]
0.1 to 1	0.1 to 1	C(=N\Nc1ncnc2c1cnn2-c1ccccc1)/c1ccncc1 [Example 1, Isonicotinaldehyde (1-phenyl-1H-pyrazolo[3,4-d]pyrimidin-4-yl)hydrazone]
0.1 to 1	0.1 to 1	COc1ccc(/C=N/Nc2ncnc3c2cnn3-c2ccccc2)cc1O [Example 45, 3-Hydroxy-4-methoxybenzaldehyde (1-phenyl-1H-pyrazolo[3,4-d]pyrimidin-4-yl)hydrazone]
